Results taken from ChEMBL document CHEMBL4043296 (J Med Chem, 2018).

What was measured:
[1] = biological target: T1, Muscarinic acetylcholine receptor M1 (Homo sapiens) (UniProt P11229); assay: Antagonist activity at human SP/Myc epitope-tagged muscarinic M1 receptor expressed in HEK293T cells assessed as inhibition of carbachol-induced mVenus-fused beta-arrestin2 recruitment preincubated for 15 mins followed by carbachol induction measured after 2 mins by BRET assay; assay type: cell-based; conditions: HEK-293T
T1 sequence (whole entry): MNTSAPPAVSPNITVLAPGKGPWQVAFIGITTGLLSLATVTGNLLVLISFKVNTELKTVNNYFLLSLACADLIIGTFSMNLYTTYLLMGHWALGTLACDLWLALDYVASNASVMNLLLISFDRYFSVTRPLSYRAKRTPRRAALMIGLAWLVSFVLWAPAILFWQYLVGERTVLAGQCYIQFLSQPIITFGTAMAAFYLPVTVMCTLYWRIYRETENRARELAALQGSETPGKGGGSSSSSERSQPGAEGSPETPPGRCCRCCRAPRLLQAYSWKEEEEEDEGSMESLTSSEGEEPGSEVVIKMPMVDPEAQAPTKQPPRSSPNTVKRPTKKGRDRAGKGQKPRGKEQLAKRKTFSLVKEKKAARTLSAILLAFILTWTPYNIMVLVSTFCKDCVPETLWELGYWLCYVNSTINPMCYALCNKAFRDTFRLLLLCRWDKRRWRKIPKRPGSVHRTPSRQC

[2] = biological target: T1, Muscarinic acetylcholine receptor M1 (Homo sapiens); assay: Antagonist activity at human SP/Myc epitope-tagged muscarinic M1 receptor expressed in HEK293T cells assessed as inhibition of carbachol-induced RLuc8-fused Galphaq activation preincubated for 15 mins followed by carbachol induction measured after 2 mins by BRET assay; assay type: cell-based; conditions: HEK-293T
[3] = biological target: T2, Muscarinic acetylcholine receptor M4 (Homo sapiens) (UniProt P08173); assay: Antagonist activity at human SP/Myc epitope-tagged muscarinic M4 receptor expressed in HEK293T cells assessed as inhibition of carbachol-induced mVenus-fused beta-arrestin2 recruitment preincubated for 15 mins followed by carbachol induction measured after 2 mins by BRET assay; assay type: cell-based; conditions: HEK-293T
T2 sequence (whole entry): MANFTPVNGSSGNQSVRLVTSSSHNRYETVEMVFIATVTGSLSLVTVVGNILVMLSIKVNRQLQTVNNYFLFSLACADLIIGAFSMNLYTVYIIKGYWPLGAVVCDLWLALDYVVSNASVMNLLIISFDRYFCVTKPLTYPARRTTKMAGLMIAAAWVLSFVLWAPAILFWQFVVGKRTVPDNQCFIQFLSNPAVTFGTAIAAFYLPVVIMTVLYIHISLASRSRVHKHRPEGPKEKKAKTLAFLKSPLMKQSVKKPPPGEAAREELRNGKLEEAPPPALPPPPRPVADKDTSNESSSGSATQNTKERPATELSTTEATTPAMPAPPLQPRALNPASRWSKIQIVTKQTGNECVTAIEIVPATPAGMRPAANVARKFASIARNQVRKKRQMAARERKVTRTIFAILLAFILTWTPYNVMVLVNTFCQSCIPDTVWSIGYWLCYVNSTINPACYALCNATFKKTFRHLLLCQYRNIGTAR

[4] = biological target: T2, Muscarinic acetylcholine receptor M4 (Homo sapiens); assay: Antagonist activity at human SP/Myc epitope-tagged muscarinic M4 receptor expressed in HEK293T cells assessed as inhibition of carbachol-induced RLuc8-fused Galphaq activation preincubated for 15 mins followed by carbachol induction measured after 2 mins by BRET assay; assay type: cell-based; conditions: HEK-293T
[5] = biological target: T3, Alpha-1A adrenergic receptor (Homo sapiens, UniProt P35348); assay: Displacement of [3H]prazosin from human recombinant alpha-1A adrenergic receptor expressed in CHO cell membranes after 30 mins by liquid scintillation counting method
T3 sequence (P35348 whole entry): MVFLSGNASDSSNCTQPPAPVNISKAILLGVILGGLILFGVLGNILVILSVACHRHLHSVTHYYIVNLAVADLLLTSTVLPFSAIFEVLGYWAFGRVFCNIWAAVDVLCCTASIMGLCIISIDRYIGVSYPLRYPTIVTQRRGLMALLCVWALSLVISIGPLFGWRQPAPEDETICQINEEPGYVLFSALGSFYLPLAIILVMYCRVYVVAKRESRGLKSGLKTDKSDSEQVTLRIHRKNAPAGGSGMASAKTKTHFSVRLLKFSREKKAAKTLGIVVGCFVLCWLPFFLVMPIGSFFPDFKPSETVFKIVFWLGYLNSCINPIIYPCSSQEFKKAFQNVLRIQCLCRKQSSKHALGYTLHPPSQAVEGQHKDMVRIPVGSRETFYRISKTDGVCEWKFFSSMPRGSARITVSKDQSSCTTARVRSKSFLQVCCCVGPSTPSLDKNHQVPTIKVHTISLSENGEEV

Homo sapiens = species: Homo sapiens; assay: Selectivity ratio of Ki for human dopamine D2 receptor to Ki for human dopamine D4 receptor
[6] = biological target: T4, Alpha-1D adrenergic receptor (Homo sapiens, UniProt P25100); assay: Displacement of [3H]prazosin from human recombinant alpha-1D adrenergic receptor expressed in CHO cell membranes after 30 mins by liquid scintillation counting method
T4 sequence (P25100 whole entry): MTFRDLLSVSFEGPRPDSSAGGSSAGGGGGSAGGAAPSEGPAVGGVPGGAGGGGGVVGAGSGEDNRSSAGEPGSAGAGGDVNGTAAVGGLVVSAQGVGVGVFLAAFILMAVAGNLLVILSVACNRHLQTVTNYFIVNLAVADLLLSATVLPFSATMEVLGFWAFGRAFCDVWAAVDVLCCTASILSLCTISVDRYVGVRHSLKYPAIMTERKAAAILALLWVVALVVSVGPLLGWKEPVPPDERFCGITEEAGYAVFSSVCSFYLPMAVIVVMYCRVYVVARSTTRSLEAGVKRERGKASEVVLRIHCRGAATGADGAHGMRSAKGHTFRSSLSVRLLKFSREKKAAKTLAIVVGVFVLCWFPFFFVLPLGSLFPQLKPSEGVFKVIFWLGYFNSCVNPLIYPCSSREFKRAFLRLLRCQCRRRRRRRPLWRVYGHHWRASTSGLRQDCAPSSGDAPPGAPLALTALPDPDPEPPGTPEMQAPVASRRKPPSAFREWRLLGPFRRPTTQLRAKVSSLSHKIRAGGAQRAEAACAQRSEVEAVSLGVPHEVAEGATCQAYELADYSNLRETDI

[7] = biological target: Sigma non-opioid intracellular receptor 1 (Cavia porcellus, UniProt Q60492); assay: Displacement of [3H](+)-pentazocine from sigma1 receptor in Hartley guinea pig brain cortex after 120 mins by scintillation counting method
Sequence of Sigma non-opioid intracellular receptor 1 (Q60492 whole entry, the tested form may be a part): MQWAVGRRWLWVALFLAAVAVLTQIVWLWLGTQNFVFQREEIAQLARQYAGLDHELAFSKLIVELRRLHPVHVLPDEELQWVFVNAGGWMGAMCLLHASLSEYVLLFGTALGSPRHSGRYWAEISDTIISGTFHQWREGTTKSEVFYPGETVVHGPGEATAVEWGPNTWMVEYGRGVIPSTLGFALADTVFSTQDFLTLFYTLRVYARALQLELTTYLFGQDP

D(4) dopamine receptor [8] = biological target: T5, D(4) dopamine receptor (Homo sapiens, UniProt P21917); assay: Antagonist activity at human SP/Myc epitope-tagged dopamine D4 receptor expressed in HEK293T cells assessed as inhibition of dopamine-induced RLuc8-fused Galphai1 activation preincubated for 15 mins followed by dopamine induction measured after 2 mins by BRET assay; assay type: cell-based, HEK-293T
T5 sequence (P21917 whole entry): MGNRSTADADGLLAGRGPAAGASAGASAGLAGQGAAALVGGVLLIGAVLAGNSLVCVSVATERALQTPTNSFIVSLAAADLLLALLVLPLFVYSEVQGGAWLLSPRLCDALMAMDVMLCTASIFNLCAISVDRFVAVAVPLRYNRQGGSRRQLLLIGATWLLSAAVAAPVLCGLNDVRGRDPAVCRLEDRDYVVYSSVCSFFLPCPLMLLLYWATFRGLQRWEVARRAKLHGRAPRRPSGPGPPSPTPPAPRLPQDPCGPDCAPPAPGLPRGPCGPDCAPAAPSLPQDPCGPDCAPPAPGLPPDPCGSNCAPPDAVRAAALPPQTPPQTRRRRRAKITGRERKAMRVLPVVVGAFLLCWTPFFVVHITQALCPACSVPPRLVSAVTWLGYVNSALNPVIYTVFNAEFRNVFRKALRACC

[9] = biological target: Beta-2 adrenergic receptor (Homo sapiens, UniProt P07550); assay: Displacement of [3H]CGP12177 from human recombinant beta2 adrenergic receptor expressed in HEK293 cell membranes after 90 mins by beta counting method
Sequence of Beta-2 adrenergic receptor (P07550 whole entry): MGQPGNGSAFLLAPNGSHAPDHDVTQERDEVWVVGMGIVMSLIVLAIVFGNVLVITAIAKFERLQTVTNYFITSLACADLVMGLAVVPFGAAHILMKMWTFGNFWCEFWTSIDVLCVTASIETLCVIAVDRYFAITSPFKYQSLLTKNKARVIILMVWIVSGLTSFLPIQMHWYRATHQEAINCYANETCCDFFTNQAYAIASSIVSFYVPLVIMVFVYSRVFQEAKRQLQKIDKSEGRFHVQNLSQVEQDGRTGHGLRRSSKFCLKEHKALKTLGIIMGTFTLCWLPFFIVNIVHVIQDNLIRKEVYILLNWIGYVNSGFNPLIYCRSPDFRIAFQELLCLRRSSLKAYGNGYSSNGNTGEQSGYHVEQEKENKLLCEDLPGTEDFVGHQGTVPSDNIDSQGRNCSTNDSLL

[10] = biological target: Sodium-dependent dopamine transporter (Rattus norvegicus, UniProt P23977); assay: Displacement of [3H]WIN 35,428 from DAT in Sprague-Dawley rat striatum after 120 mins by scintillation counting method
Sequence of Sodium-dependent dopamine transporter (P23977 whole entry): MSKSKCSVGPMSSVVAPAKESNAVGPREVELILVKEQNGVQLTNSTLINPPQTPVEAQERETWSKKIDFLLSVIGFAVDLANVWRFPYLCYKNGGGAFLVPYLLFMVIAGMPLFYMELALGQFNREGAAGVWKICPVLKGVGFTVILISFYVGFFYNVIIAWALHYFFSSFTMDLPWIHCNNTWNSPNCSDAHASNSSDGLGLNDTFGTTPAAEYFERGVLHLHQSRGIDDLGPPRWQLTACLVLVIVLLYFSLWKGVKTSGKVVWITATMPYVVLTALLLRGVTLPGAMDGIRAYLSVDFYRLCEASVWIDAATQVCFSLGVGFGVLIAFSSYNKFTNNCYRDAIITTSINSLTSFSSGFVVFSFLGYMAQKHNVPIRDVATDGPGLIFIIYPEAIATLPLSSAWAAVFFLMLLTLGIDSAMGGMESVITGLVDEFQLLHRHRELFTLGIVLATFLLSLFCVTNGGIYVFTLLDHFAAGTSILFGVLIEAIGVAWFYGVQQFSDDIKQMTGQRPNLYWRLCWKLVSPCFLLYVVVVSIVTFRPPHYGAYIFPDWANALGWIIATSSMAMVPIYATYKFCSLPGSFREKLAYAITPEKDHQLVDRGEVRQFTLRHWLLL

[11] = biological target: Beta-1 adrenergic receptor (Homo sapiens, UniProt P08588); assay: Displacement of [3H]CGP12177 from human recombinant beta1 adrenergic receptor expressed in HEK293 cell membranes after 90 mins by beta counting method
Sequence of Beta-1 adrenergic receptor (P08588 whole entry, the tested form may be a part): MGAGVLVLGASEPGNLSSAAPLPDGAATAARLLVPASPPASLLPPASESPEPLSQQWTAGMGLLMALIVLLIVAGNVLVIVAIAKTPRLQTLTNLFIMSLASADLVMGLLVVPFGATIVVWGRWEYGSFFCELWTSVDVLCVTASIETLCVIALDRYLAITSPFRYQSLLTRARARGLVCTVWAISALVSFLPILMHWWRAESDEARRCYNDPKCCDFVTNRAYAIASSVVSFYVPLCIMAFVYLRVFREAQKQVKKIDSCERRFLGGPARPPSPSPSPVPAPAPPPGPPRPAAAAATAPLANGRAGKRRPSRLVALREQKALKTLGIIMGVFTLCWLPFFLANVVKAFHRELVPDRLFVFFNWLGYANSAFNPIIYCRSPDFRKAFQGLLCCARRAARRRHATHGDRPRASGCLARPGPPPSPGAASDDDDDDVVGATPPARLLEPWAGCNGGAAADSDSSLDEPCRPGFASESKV

D(4) dopamine receptor [12] = biological target: T5, D(4) dopamine receptor; assay: Antagonist activity at human SP/Myc epitope-tagged dopamine D4 receptor expressed in HEK293T cells assessed as inhibition of dopamine-induced mVenus-fused beta-arrestin2 recruitment preincubated for 15 mins followed by dopamine induction measured after 2 mins by BRET assay; assay type: cell-based, HEK-293T
[13] = biological target: T6, Alpha-1B adrenergic receptor (Homo sapiens, UniProt P35368); assay: Displacement of [3H]prazosin from human recombinant alpha-1B adrenergic receptor expressed in CHO cell membranes after 30 mins by liquid scintillation counting method
T6 sequence (P35368 whole entry): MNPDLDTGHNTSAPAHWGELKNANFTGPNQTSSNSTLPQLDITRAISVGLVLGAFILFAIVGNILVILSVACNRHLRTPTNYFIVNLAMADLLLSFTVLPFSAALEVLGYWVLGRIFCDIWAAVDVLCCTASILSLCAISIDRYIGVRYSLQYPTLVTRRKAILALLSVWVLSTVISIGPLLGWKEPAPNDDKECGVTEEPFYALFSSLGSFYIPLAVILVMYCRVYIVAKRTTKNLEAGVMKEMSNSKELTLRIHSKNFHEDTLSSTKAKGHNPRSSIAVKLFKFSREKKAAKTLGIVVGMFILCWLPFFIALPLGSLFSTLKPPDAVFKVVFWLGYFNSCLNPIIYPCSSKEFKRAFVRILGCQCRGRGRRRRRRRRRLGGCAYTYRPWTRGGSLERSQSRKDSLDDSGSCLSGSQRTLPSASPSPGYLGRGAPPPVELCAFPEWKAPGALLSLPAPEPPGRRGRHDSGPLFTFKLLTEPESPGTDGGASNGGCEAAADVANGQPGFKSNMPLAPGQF

D(4) dopamine receptor [14] = biological target: T5, D(4) dopamine receptor; assay: Displacement of [3H]N-methylspiperone from human dopamine D4 receptor expressed in HEK293 cell membranes after 1 hr by scintillation counting method
[15] = biological target: Sodium-dependent serotonin transporter (Rattus norvegicus, UniProt P31652); assay: Displacement of [3H]-citalopram from SERT in Sprague-Dawley rat midbrain after 60 mins by scintillation counting method
Sequence of Sodium-dependent serotonin transporter (P31652 whole entry): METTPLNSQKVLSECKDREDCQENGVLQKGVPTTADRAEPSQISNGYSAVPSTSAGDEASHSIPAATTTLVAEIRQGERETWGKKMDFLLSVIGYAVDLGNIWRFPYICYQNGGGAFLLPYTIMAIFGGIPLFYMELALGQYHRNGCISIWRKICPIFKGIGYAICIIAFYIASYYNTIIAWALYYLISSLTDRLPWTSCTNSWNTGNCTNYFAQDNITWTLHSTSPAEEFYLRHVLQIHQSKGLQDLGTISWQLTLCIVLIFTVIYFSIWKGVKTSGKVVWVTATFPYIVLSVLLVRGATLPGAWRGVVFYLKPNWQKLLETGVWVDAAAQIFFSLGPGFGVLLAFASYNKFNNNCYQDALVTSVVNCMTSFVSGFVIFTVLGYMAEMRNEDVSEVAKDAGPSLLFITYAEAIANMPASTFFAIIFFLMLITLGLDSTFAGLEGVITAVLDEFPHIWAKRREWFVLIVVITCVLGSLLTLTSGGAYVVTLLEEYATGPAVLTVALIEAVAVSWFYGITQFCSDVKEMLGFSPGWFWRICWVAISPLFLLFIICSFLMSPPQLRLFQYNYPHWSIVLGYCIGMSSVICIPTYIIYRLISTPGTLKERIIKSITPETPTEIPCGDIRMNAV

D(3) dopamine receptor = D(3) dopamine receptor (Homo sapiens, UniProt P35462); assay: Displacement of [3H]N-methylspiperone from human dopamine D3 receptor expressed in HEK293 cell membranes after 1 hr by scintillation counting method
Sequence of D(3) dopamine receptor (P35462 whole entry): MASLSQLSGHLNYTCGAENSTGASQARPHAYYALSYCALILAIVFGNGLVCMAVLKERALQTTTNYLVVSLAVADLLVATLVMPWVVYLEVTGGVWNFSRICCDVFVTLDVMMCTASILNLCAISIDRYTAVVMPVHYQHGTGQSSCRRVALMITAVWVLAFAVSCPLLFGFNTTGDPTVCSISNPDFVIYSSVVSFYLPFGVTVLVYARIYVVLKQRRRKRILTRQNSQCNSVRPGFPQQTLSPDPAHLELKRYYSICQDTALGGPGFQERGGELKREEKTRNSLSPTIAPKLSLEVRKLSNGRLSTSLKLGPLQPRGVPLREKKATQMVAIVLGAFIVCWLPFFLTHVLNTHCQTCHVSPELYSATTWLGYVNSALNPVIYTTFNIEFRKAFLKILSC

D(2) dopamine receptor = D(2) dopamine receptor (Homo sapiens, UniProt P14416); assay: Displacement of [3H]N-methylspiperone from human dopamine D2 receptor expressed in HEK293 cell membranes after 1 hr by scintillation counting method
Sequence of D(2) dopamine receptor (P14416 whole entry): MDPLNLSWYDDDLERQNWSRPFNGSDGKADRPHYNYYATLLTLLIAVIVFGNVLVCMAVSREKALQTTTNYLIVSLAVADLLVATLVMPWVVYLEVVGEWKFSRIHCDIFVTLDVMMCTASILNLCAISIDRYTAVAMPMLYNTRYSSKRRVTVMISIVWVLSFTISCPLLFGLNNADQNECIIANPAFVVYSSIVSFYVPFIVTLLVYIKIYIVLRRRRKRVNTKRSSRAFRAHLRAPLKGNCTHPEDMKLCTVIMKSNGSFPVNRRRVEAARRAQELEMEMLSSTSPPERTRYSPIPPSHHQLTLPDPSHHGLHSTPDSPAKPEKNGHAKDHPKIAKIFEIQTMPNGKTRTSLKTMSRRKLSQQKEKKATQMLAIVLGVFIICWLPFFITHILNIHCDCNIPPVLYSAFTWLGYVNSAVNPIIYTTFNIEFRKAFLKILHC

Ki [5] [nM]	Ratio Ki (Homo sapiens)	Ki [6] [nM]	Ki [7] [nM]	IC50 (D(4) dopamine receptor [8]) [nM]	Ki [9] [nM]	Ki [10] [nM]	Ki [11] [nM]	IC50 (D(4) dopamine receptor [12]) [nM]	Ki [13] [nM]	Ki (D(4) dopamine receptor [14]) [nM]	Ki [15] [nM]	Ki (D(3) dopamine receptor) [nM]	Ki (D(2) dopamine receptor) [nM]	SMILES	Imax [1] [%]	Imax [2] [%]	Imax [3] [%]	Imax [4] [%]
														CN1[C@@H]2C[C@@H](OC(=O)[C@H](CO)c3ccccc3)C[C@H]1[C@@H]1O[C@H]12	76	71	73	79
437	691	1000	7.24	117	43700	3390	47900	6.03	776	0.977	8910	617	676	CCCCC1CCN(CCCN2C(=O)CCc3ccccc32)CC1				
